# In patent US7396837B2, “Antitumoral analogs of lamellarins” (Pharma Mar, S.A.U., priority 2002, dated 2008):
# Like-named read-outs stand apart in the source and are kept apart here.
# Experiments:
# Type in all cases: cell-based
# SK-BR-3 = assay: SRB colorimetric cell growth inhibition assay, SK-BR-3; conditions: for GI50: GI=growth inhibition, read-out: GI50 SK-BR-3; for CC50: cell killing (cytotoxic effect), read-out: LC50 SK-BR-3
# Source text: (§1) The finality of these assays is to interrupt the growth of an “in vitro” tumor cell culture by means a continued exhibition of the cells to the sample to be testing.
# (§2) A colorimetric type of assay, using sulforhodamine B (SRB) reaction has been adapted for a quantitative measurement of cell growth and viability (following the technique described by P. A. Skehan, et al., J. Natl. Cancer Inst. 1990, 82, 1107-1112).
# (§3) This form of assay employs 96 well cell culture microplates of 9 mm diameter (T. Mosmann et al., J. of Immunological Methods 1983, 65, 55-63; G. T. Faircloth et al., J. of Tissue and Culture Methods 1988, 11, 201-205).
# (§4) Most of the cell lines are obtained from American Type Culture Collection (ATCC) derived from different human cancer types.
# (§5) The values for mean +/− SD of data from triplicate wells are calculated. Some parameters for cellular responses can be calculated: GI=growth inhibition, TGI=total growth inhibition (cytostatic effect) and LC=cell killing (cytotoxic effect).
# IGROV-ET = assay: SRB colorimetric cell growth inhibition assay, IGROV-ET (ET-743 resistant); conditions: IGROV-ET; for GI50: GI=growth inhibition, read-out: GI50 IGROV-ET; for CC50: cell killing (cytotoxic effect), read-out: LC50 IGROV-ET
# Source text: as §1, §2, §3, §4, §5
# HT-29 = assay: SRB colorimetric cell growth inhibition assay, HT-29; conditions: for GI50: GI=growth inhibition, read-out: GI50 HT-29
# Source text: as §1, §2, §3, §4, §5
# DU-145 = assay: SRB colorimetric cell growth inhibition assay, DU-145; conditions: for GI50: GI=growth inhibition, read-out: GI50 DU-145; for CC50: cell killing (cytotoxic effect), read-out: LC50 DU-145
# Source text: as §1, §2, §3, §4, §5
# SK-MEL-28 = assay: SRB colorimetric cell growth inhibition assay, SK-MEL-28; conditions: for GI50: GI=growth inhibition, read-out: GI50 MEL-28; for CC50: cell killing (cytotoxic effect), read-out: LC50 MEL-28
# Source text: as §1, §2, §3, §4, §5
# A-549 = assay: SRB colorimetric cell growth inhibition assay, A-549; conditions: for GI50: GI=growth inhibition, read-out: GI50 A-549
# Source text: as §1, §2, §3, §4, §5
# HeLa = assay: SRB colorimetric cell growth inhibition assay, HeLa; conditions: Homo sapiens, HeLa; for GI50: GI=growth inhibition, read-out: GI50 HELA; for CC50: cell killing (cytotoxic effect), read-out: LC50 HELA; for IC (TGI): total growth inhibition (cytostatic effect), read-out: TGI HELA
# Source text: as §1, §2, §3, §4, §5
# IGROV = assay: SRB colorimetric cell growth inhibition assay, IGROV; conditions: IGROV; for GI50: GI=growth inhibition, read-out: GI50 IGROV; for CC50: cell killing (cytotoxic effect), read-out: LC50 IGROV
# Source text: as §1, §2, §3, §4, §5
# HeLa-APL = assay: SRB colorimetric cell growth inhibition assay, HeLa-APL (aplidine resistant); conditions: Homo sapiens, HELA-APL; for GI50: GI=growth inhibition, read-out: GI50 HELA-APL; for CC50: cell killing (cytotoxic effect), read-out: LC50 HELA-APL; for IC (TGI): total growth inhibition (cytostatic effect), read-out: TGI HELA-APL
# Source text: as §1, §2, §3, §4, §5
# LoVo = assay: SRB colorimetric cell growth inhibition assay, LoVo; conditions: for GI50: GI=growth inhibition, read-out: GI50 LOVO
# Source text: as §1, §2, §3, §4, §5
# LoVo-Dox = assay: SRB colorimetric cell growth inhibition assay, LoVo-Dox (MDR); conditions: LOVO-DOX; for GI50: GI=growth inhibition, read-out: GI50 LOVO-DOX
# Source text: as §1, §2, §3, §4, §5
# PANC-1 = assay: SRB colorimetric cell growth inhibition assay, PANC-1; conditions: for GI50: GI=growth inhibition, read-out: GI50 PANC-1
# Source text: as §1, §2, §3, §4, §5
# [1] = total growth inhibition (cytostatic effect)
# [2] = Homo sapiens, SK-MEL-28, MEL-28
structure (smiles),measurement,setting,value
COc1cc2ccn3c(c(-c4ccc(OC(=O)[C@@H](N)C(C)C)c(OC)c4)c4c5cc(OC)c(OC(=O)[C@@H](N)C(C)C)cc5oc(=O)c43)c2cc1OC [Compound 14],GI50,SK-BR-3; SK-BR-3,0.0424 µM
same,CC50,SK-BR-3; SK-BR-3,14 µM
same,TGI SK-BR-3,"SK-BR-3; SK-BR-3, total growth inhibition (cytostatic effect)",9.88E−08 Molar
same,GI50,IGROV-ET,0.745 µM
same,CC50,IGROV-ET,14 µM
same,TGI IGROV-ET,IGROV-ET; [1],4.97E−06 Molar
same,GI50,HT-29; HT-29,2.47 µM
same,TGI HT-29,"HT-29; HT-29, total growth inhibition (cytostatic effect)",7.26E−06 Molar
same,GI50,DU-145; DU-145,0.517 µM
same,CC50,DU-145; DU-145,14 µM
same,TGI DU-145,"DU-145; DU-145, total growth inhibition (cytostatic effect)",2.19E−06 Molar
same,GI50,SK-MEL-28; MEL-28,1.42 µM
same,CC50,SK-MEL-28; MEL-28,14 µM
same,TGI MEL-28,"SK-MEL-28; MEL-28, total growth inhibition (cytostatic effect)",1.40E−05 Molar
same,GI50,A-549; A-549,0.555 µM
same,TGI A-549,"A-549; A-549, total growth inhibition (cytostatic effect)",1.40E−05 Molar
same,GI50,HeLa,1.83 µM
same,CC50,HeLa,12.4 µM
same,IC (TGI),HeLa,9.63 µM
same,GI50,IGROV,0.49 µM
same,CC50,IGROV,14 µM
same,TGI IGROV,IGROV; [1],2.44E−06 Molar
same,GI50,HeLa-APL,2.6 µM
same,CC50,HeLa-APL,12.4 µM
same,IC (TGI),HeLa-APL,12.1 µM
same,GI50,LoVo; LOVO,0.597 µM
same,TGI LOVO,"LoVo; LOVO, total growth inhibition (cytostatic effect)",2.47E−06 Molar
same,GI50,LoVo-Dox,0.497 µM
same,TGI LOVO-DOX,LoVo-Dox; [1],1.45E−06 Molar
same,GI50,PANC-1; PANC-1,1.18 µM
same,TGI PANC-1,"PANC-1; PANC-1, total growth inhibition (cytostatic effect)",1.40E−05 Molar
COc1cc2ccn3c(c(-c4ccc(OC(=O)[C@H](C)N)c(OC)c4)c4c5cc(OC)c(OC(=O)[C@H](C)N)cc5oc(=O)c43)c2cc1OC [Compound 20],GI50,"SK-BR-3; Homo sapiens, SK-BR-3, SK-BR-3",0.0548 µM
same,CC50,"SK-BR-3; Homo sapiens, SK-BR-3, SK-BR-3",15.3 µM
same,IC (TGI),"SK-BR-3; Homo sapiens, SK-BR-3, SK-BR-3, total growth inhibition (cytostatic effect), read-out: TGI SK-BR-3",0.238 µM
same,GI50,IGROV-ET; Homo sapiens,0.593 µM
same,CC50,IGROV-ET; Homo sapiens,15.3 µM
same,IC (TGI),"IGROV-ET; Homo sapiens, total growth inhibition (cytostatic effect), read-out: TGI IGROV-ET",15.3 µM
same,GI50,"HT-29; Homo sapiens, HT-29, HT-29",3.58 µM
same,CC50,"HT-29; Homo sapiens, HT-29, HT-29, cell killing (cytotoxic effect), read-out: LC50 HT-29",15.3 µM
same,IC (TGI),"HT-29; Homo sapiens, HT-29, HT-29, total growth inhibition (cytostatic effect), read-out: TGI HT-29",15.3 µM
same,GI50,"DU-145; Homo sapiens, DU-145, DU-145",0.5 µM
same,CC50,"DU-145; Homo sapiens, DU-145, DU-145",15.3 µM
same,IC (TGI),"DU-145; Homo sapiens, DU-145, DU-145, total growth inhibition (cytostatic effect), read-out: TGI DU-145",2.36 µM
same,GI50,SK-MEL-28; [2],2.24 µM
same,CC50,SK-MEL-28; [2],15.3 µM
same,IC (TGI),"SK-MEL-28; Homo sapiens, SK-MEL-28, MEL-28, total growth inhibition (cytostatic effect), read-out: TGI MEL-28",15.3 µM
same,GI50,"A-549; Homo sapiens, A549, A-549",0.589 µM
same,CC50,"A-549; Homo sapiens, A549, A-549, cell killing (cytotoxic effect), read-out: LC50 A-549",15.3 µM
same,IC (TGI),"A-549; Homo sapiens, A549, A-549, total growth inhibition (cytostatic effect), read-out: TGI A-549",15.3 µM
same,GI50,HeLa,1.17 µM
same,CC50,HeLa,15.3 µM
same,IC (TGI),HeLa,15.3 µM
same,GI50,IGROV; Homo sapiens,0.516 µM
same,CC50,IGROV; Homo sapiens,15.3 µM
same,IC (TGI),"IGROV; Homo sapiens, total growth inhibition (cytostatic effect), read-out: TGI IGROV",7.46 µM
same,GI50,HeLa-APL,2.09 µM
same,CC50,HeLa-APL,15.3 µM
same,IC (TGI),HeLa-APL,15.3 µM
same,GI50,"LoVo; Homo sapiens, LoVo",0.436 µM
same,CC50,"LoVo; Homo sapiens, LoVo, cell killing (cytotoxic effect), read-out: LC50 LOVO",15.3 µM
same,IC (TGI),"LoVo; Homo sapiens, LoVo, total growth inhibition (cytostatic effect), read-out: TGI LOVO",8.83 µM
same,GI50,LoVo-Dox; Homo sapiens,0.525 µM
same,CC50,"LoVo-Dox; Homo sapiens, cell killing (cytotoxic effect), read-out: LC50 LOVO-DOX",15.3 µM
same,IC (TGI),"LoVo-Dox; Homo sapiens, total growth inhibition (cytostatic effect), read-out: TGI LOVO-DOX",2.06 µM
same,GI50,"PANC-1; Homo sapiens, PANC-1, PANC-1",1.24 µM
same,CC50,"PANC-1; Homo sapiens, PANC-1, PANC-1, cell killing (cytotoxic effect), read-out: LC50 PANC-1",15.3 µM
same,IC (TGI),"PANC-1; Homo sapiens, PANC-1, PANC-1, total growth inhibition (cytostatic effect), read-out: TGI PANC-1",15.3 µM
